# Test results taken from patent US12655437B2, “Compositions and methods for modulating the gastrointestinal tract using bile salt hydrolases” (North Carolina State University, priority 2019, dated 2026).
# Legend:
# C. difficile [1] = test: Growth of C. difficile anaerobically in BHIS medium supplemented with bile acids and purified BSH; type: cell-based, Clostridioides difficile; details: BHIS media supplemented with the bile acid alone
# Method: FIGS. 22A-22C: BSH specificity can leveraged to inhibit Clostridioides difficile in a conjugated bile acid substrate-dependent manner. (A) Recombinantly expressed and purified L. johnsonii BSHs were assayed for deconjugation with GCDCA and TCDCA. Specific activities for each BSH were determined by quantifying the rate of amino acid release by Ninhydrin assay. (B, C) Growth of C. difficile anaerobically in BHIS medium supplemented with GCDCA, TCDCA, or CDCA in combination with purified LjoBSHa or LjoBSHc.
# As shown in FIGS. 9-11, recombinant BHSs were overexpressed and purified to homogeneity, and experiments were conducted to evaluate their activity. Two recombinant BSH enzymes were used for this assay. […] TCDCA was chosen as a conjugated bile acid to be used in the growth assays due to C. difficile's sensitivity to the CDCA that is released from BSH activity. […] A high dosage of LjoBSHa is needed to overcome its catalytic deficiency (FIG. 9).
# TCDCA was chosen as a conjugated bile acid to be used in this growth (FIGS. 22B-22C) assay due to C. difficile's sensitivity to the CDCA that is released from BSH activity. […] A high dosage of LjoBSHa is needed to overcome its catalytic deficiency.
# L. acidophilus ΔbshAB = test: Growth of L. acidophilus bsh mutants in MRS media supplemented with bile acids; type: cell-based, Lactobacillus acidophilus
# Method: FIG. 12: L. acidophilus bshA and bshB contribute to bile acid detoxification in a substrate dependent manner. Growth of BSH mutants in the presence of bile acids. To evaluate the role of BSH activity during L. acidophilus growth, single and double BSH mutants were grown in MRS media supplemented with bile acids and growth was measured by OD600 nm.
# FIGS. 13A-13G: L. acidophilus bshA and bshB contribute to bile acid detoxification in a substrate and concentration dependent manner.
# FIGS. 12-14 include representative results of experiments conducted to evaluate the role of BSH activity during L. acidophilus growth. […] The L. acidophilus strains with deletion in bshA, bshB, and bshAB were tested in plate assays and growth curves were determined. The ΔbshA, ΔbshB, and ΔbshAB L. acidophilus and L. gasseri strains were grown in the presence of conjugated bile acids to test BSH contributions to bile acid detoxification. FIG. 12 provides growth curves of L. acidophilus mutants grown in a variety of bile acid concentrations. As shown, single and double BSH mutants (ΔbshA and ΔbshB) were grown in MRS media supplemented with bile acids.
# (§1) Error bars represent s.d. from n=4 independent experiments. Dashed lined denotes the approximate starting CFUs/mL at 0 h. Exogenous recombinant LaBSHa and LaBSHb (LaBSHab) or LgBSHa and LgBSHb (LgBSHab) were supplemented to cultures in equimolar amounts to L. acidophilus ΔbshAB or L. gasseri ΔbshAB growths to functionally complement ΔbshAB strains.
# C. difficile [2] = details: cited from earlier work
# L. gasseri ΔbshAB = test: Growth of L. gasseri bsh mutants in MRS media supplemented with bile acids; type: cell-based, Lactobacillus gasseri
# Method: as §1, with “bars represent standard deviation (s.d.) from n=4” for “bars represent s.d. from n=4”, “amounts to (A) L. acidophilus” for “amounts to L. acidophilus”, “ΔbshAB or (B) L. gasseri” for “ΔbshAB or L. gasseri”
# The L. acidophilus strains with deletion in bshA, bshB, and bshAB were tested in plate assays and growth curves were determined. The ΔbshA, ΔbshB, and ΔbshAB L. acidophilus and L. gasseri strains were grown in the presence of conjugated bile acids to test BSH contributions to bile acid detoxification. FIG. 12 provides growth curves of L. acidophilus mutants grown in a variety of bile acid concentrations.
SMILES,C. difficile growth (C. difficile [1]),growth of L. acidophilus ΔbshAB (L. acidophilus ΔbshAB; 5 mM bile acid in MRS),growth of L. acidophilus ΔbshAB (L. acidophilus ΔbshAB; 2.5 mM bile acid in MRS),other results
"C[C@H](CCC(=O)NCCS(=O)(=O)O)[C@H]1CC[C@H]2[C@@H]3[C@H](O)C[C@@H]4C[C@H](O)CC[C@]4(C)[C@H]3CC[C@]12C [TCDCA, taurochendeoxycholate]",no inhibition of growth,less inhibited,–,effect on C. difficile (C. difficile [2]; bile acid alone): does not affect C. difficile
"C[C@H](CCC(=O)NCC(=O)O)[C@H]1CC[C@H]2[C@@H]3CC[C@@H]4C[C@H](O)CC[C@]4(C)[C@H]3C[C@H](O)[C@]12C [GDCA, glycodeoxycholate]",–,–,significantly inhibited,growth of L. gasseri ΔbshAB (L. gasseri ΔbshAB; 1.25 mM bile acid in MRS): significantly inhibited
"C[C@H](CCC(=O)NCC(=O)O)[C@H]1CC[C@H]2[C@@H]3[C@H](O)C[C@@H]4C[C@H](O)CC[C@]4(C)[C@H]3C[C@H](O)[C@]12C [GCA, glycocholate]",–,less inhibited,–,growth of L. gasseri ΔbshAB (L. gasseri ΔbshAB; 5 mM bile acid in MRS): significantly less inhibited
"C[C@H](CCC(=O)NCC(=O)O)[C@H]1CC[C@H]2[C@@H]3[C@H](O)C[C@@H]4C[C@H](O)CC[C@]4(C)[C@H]3CC[C@]12C [GCDCA, glycochendeoxycholate]",–,–,significantly inhibited,growth of L. gasseri ΔbshAB (L. gasseri ΔbshAB; 2.5 mM bile acid in MRS): significantly inhibited
"C[C@H](CCC(=O)O)[C@H]1CC[C@H]2[C@@H]3[C@H](O)C[C@@H]4C[C@H](O)CC[C@]4(C)[C@H]3CC[C@]12C [CDCA, chendeoxycholate]",complete inhibition,–,–,C. difficile spore germination (C. difficile [2]): inhibits; C. difficile vegetative cells (C. difficile [2]): kills
"C[C@H](CCC(=O)NCCS(=O)(=O)O)[C@H]1CC[C@H]2[C@@H]3CC[C@@H]4C[C@H](O)CC[C@]4(C)[C@H]3C[C@H](O)[C@]12C [TDCA, taurodeoxycholate]",–,significantly inhibited,–,–
